Experimental findings from ChEMBL document CHEMBL2163241, “Human neutrophil elastase phosphonic inhibitors with improved potency of action” (J Med Chem, 2012) are described below.

Each structure is given as a SMILES string.

Test [1] concerns the target Pancreatic elastase (Sus scrofa) (UniProt P08419+P00772). The test can be described thus: Inhibition of porcine pancreatic elastase at 25 uM assessed as Kinact/Ki ratio incubated for 15 mins by spectrofluorometry. The class given is protein assay.
The nature of test [2]: Inhibition of trypsin at 25 uM assessed as Kinact/Ki ratio incubated for 15 mins by spectrofluorometry.
Test [3] in a line: Inhibition of chymotrypsin at 25 uM assessed as Kinact/Ki ratio incubated for 15 mins by spectrofluorometry.
Test [4] concerns the target T1, Neutrophil elastase (Homo sapiens) (UniProt P08246).
T1 sequence (whole entry): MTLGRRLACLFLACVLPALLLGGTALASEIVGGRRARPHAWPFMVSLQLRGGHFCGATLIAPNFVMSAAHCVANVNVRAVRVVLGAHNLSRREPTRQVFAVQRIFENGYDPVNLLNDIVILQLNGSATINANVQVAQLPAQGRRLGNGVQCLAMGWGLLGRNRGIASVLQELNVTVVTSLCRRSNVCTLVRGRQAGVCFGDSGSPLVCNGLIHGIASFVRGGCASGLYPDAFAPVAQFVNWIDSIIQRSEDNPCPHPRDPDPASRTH
The test can be described thus: Inhibition of human leukocyte elastase at 25 uM assessed as Kinact/Ki ratio incubated for 15 mins by spectrofluorometry.

On to `COc1ccc(C(=O)N[C@H](C(=O)N2CCC[C@H]2C(=O)N[C@@H](C(C)C)P(=O)(Oc2ccc(SC)cc2)Oc2ccc(SC)cc2)C(C)C)cc1`, for which the Ratio in test [1] was 6700 M⁻¹ s⁻¹; in test [2], below 50 M⁻¹ s⁻¹; in test [3], 100 M⁻¹ s⁻¹; in test [4], 540000 M⁻¹ s⁻¹.
For `COc1ccc(C(=O)N[C@H](C(=O)N2CCC[C@H]2C(=O)N[C@H](C(C)C)P(=O)(Oc2ccc(SC)cc2)Oc2ccc(SC)cc2)C(C)C)cc1`, the results for the Ratio in test [1], in test [3] and in test [4] were below 50 M⁻¹ s⁻¹, below 50 M⁻¹ s⁻¹ and 4800 M⁻¹ s⁻¹, respectively. Also, the inhibition in test [2] is below 5%.
For `CSc1ccc(OP(=O)(Oc2ccc(SC)cc2)[C@@H](NC(=O)[C@@H]2CCCN2C(=O)[C@@H](NC(=O)Cn2cc(C)c(=O)n(CC(=O)O)c2=O)C(C)C)C(C)C)cc1`, the Ratio in test [1] was found to be 243000 M⁻¹ s⁻¹; in test [2], 280 M⁻¹ s⁻¹; in test [3], 44700 M⁻¹ s⁻¹; in test [4] it was 1.76e+06 M⁻¹ s⁻¹.
For `CSc1ccc(OP(=O)(Oc2ccc(SC)cc2)[C@@H](NC(=O)[C@@H]2CCCN2C(=O)[C@@H](NC(=O)OC(C)(C)C)C(C)C)C(C)C)cc1`, in that order: 22300 M⁻¹ s⁻¹, below 50 M⁻¹ s⁻¹, 850 M⁻¹ s⁻¹ and 431000 M⁻¹ s⁻¹.
With `CSc1ccc(OP(=O)(Oc2ccc(SC)cc2)[C@H](NC(=O)[C@@H]2CCCN2C(=O)[C@@H](NC(=O)COc2ccc(OCC(=O)O)cc2)C(C)C)C(C)C)cc1`, the Ratio in test [1] is 85 M⁻¹ s⁻¹; in test [2] it was below 50 M⁻¹ s⁻¹; in test [3] it was below 50 M⁻¹ s⁻¹; in test [4], 1550 M⁻¹ s⁻¹.
For the molecule `CSc1ccc(OP(=O)(Oc2ccc(SC)cc2)[C@H](NC(=O)[C@@H]2CCCN2C(=O)[C@@H](NC(=O)Cn2cc(C)c(=O)n(CC(=O)O)c2=O)C(C)C)C(C)C)cc1`, the values for the Ratio in test [1], in test [3] and in test [4] were 300 M⁻¹ s⁻¹, below 50 M⁻¹ s⁻¹ and 4100 M⁻¹ s⁻¹, respectively. Besides, the inhibition in test [2] is below 5%.
For `CSc1ccc(OP(=O)(Oc2ccc(SC)cc2)[C@H](NC(=O)[C@@H]2CCCN2C(=O)[C@@H](NC(=O)Cn2ccc(=O)n(CC(=O)O)c2=O)C(C)C)C(C)C)cc1`, in that order: 200 M⁻¹ s⁻¹, below 50 M⁻¹ s⁻¹, 2000 M⁻¹ s⁻¹ and below 5%.
For `CSc1ccc(OP(=O)(Oc2ccc(SC)cc2)[C@H](NC(=O)[C@@H]2CCCN2C(=O)[C@@H](NC(=O)OC(C)(C)C)C(C)C)C(C)C)cc1`, in that order: below 50 M⁻¹ s⁻¹, below 50 M⁻¹ s⁻¹, 2650 M⁻¹ s⁻¹ and below 5%.
`CC(C)C(NC(=O)[C@@H]1CCCN1C(=O)[C@@H](NC(=O)OC(C)(C)C)C(C)C)P(=O)(Oc1ccc(Cl)cc1)Oc1ccc(Cl)cc1` (mixture of isomers): the Ratio is 5000 M⁻¹ s⁻¹ in test [1], below 50 M⁻¹ s⁻¹ in test [2], 250 M⁻¹ s⁻¹ in test [3] and 92100 M⁻¹ s⁻¹ in test [4].
The matching figures for `CC(C)CC(NC(=O)[C@@H]1CCCN1C(=O)[C@@H](NC(=O)OC(C)(C)C)C(C)C)P(=O)(Oc1ccc(Cl)cc1)Oc1ccc(Cl)cc1` (mixture of isomers): 12800 M⁻¹ s⁻¹, below 50 M⁻¹ s⁻¹, 18100 M⁻¹ s⁻¹ and 3400 M⁻¹ s⁻¹.
The matching figures for `CC(C)CC(NC(=O)[C@@H]1CCCN1C(=O)[C@@H](NC(=O)OC(C)(C)C)C(C)C)P(=O)(Oc1ccccc1)Oc1ccccc1` (mixture of isomers): 1300 M⁻¹ s⁻¹, below 50 M⁻¹ s⁻¹, 1900 M⁻¹ s⁻¹ and 325 M⁻¹ s⁻¹.
The matching figures for `CC(C)c1ccc(OP(=O)(Oc2ccc(C(C)C)cc2)C(NC(=O)[C@@H]2CCCN2C(=O)[C@@H](NC(=O)OC(C)(C)C)C(C)C)C(C)C)cc1` (mixture of isomers): 2000 M⁻¹ s⁻¹, below 50 M⁻¹ s⁻¹, below 50 M⁻¹ s⁻¹ and 4200 M⁻¹ s⁻¹.
Regarding `CCC(NC(=O)[C@@H]1CCCN1C(=O)[C@@H](NC(=O)OC(C)(C)C)C(C)C)P(=O)(Oc1ccc(C(C)C)cc1)Oc1ccc(C(C)C)cc1` (mixture of isomers), the Ratio in test [1] was 580 M⁻¹ s⁻¹; in test [2], below 50 M⁻¹ s⁻¹; in test [3] it was below 50 M⁻¹ s⁻¹; in test [4], below 50 M⁻¹ s⁻¹.
For `CCC(NC(=O)[C@@H]1CCCN1C(=O)[C@@H](NC(=O)OC(C)(C)C)C(C)C)P(=O)(Oc1ccc(C)c(C)c1)Oc1ccc(C)c(C)c1` (mixture of isomers), the Ratio in test [1] is 1250 M⁻¹ s⁻¹; in test [2], below 50 M⁻¹ s⁻¹; in test [3], below 50 M⁻¹ s⁻¹; in test [4], 460 M⁻¹ s⁻¹.
On to `CCC(NC(=O)[C@@H]1CCCN1C(=O)[C@@H](NC(=O)OC(C)(C)C)C(C)C)P(=O)(Oc1ccc(OC)cc1)Oc1ccc(OC)cc1` (mixture of isomers), for which the Ratio in test [1] is 9900 M⁻¹ s⁻¹; in test [2], below 50 M⁻¹ s⁻¹; in test [3], below 50 M⁻¹ s⁻¹; in test [4], 11000 M⁻¹ s⁻¹.
On to `CCC(NC(=O)[C@@H]1CCCN1C(=O)[C@@H](NC(=O)OC(C)(C)C)C(C)C)P(=O)(Oc1ccc(SC)cc1)Oc1ccc(SC)cc1` (mixture of isomers), for which the Ratio in test [1] was 60100 M⁻¹ s⁻¹; in test [2], 460 M⁻¹ s⁻¹; in test [3], 365 M⁻¹ s⁻¹; in test [4], 165000 M⁻¹ s⁻¹.
Regarding `CCCC(NC(=O)[C@@H]1CCCN1C(=O)[C@@H](NC(=O)OC(C)(C)C)C(C)C)P(=O)(Oc1ccccc1)Oc1ccccc1` (mixture of isomers), the Ratio in test [1] is 10900 M⁻¹ s⁻¹; in test [2], below 50 M⁻¹ s⁻¹; in test [3], 140 M⁻¹ s⁻¹; in test [4] it was 2600 M⁻¹ s⁻¹.
For `CCCCC(NC(=O)[C@@H]1CCCN1C(=O)[C@@H](NC(=O)OC(C)(C)C)C(C)C)P(=O)(Oc1ccccc1)Oc1ccccc1` (mixture of isomers), in that order: 1700 M⁻¹ s⁻¹, below 50 M⁻¹ s⁻¹, 400 M⁻¹ s⁻¹ and 650 M⁻¹ s⁻¹.
For `CC[C@H](C)[C@H](NC(=O)OCc1ccccc1)C(=O)N1CCC[C@H]1C(=O)NC(C(C)C)P(=O)(Oc1ccc(SC)cc1)Oc1ccc(SC)cc1` (mixture of isomers), the Ratio in test [1] is 1800 M⁻¹ s⁻¹; in test [2], below 50 M⁻¹ s⁻¹; in test [3] it was 1600 M⁻¹ s⁻¹; in test [4], 145000 M⁻¹ s⁻¹.
For `COc1ccc(OP(=O)(Oc2ccc(OC)cc2)C(CC(C)C)NC(=O)[C@@H]2CCCN2C(=O)[C@@H](NC(=O)OC(C)(C)C)C(C)C)cc1` (mixture of isomers), in that order: 960 M⁻¹ s⁻¹, below 50 M⁻¹ s⁻¹, 1700 M⁻¹ s⁻¹ and 270 M⁻¹ s⁻¹.
The matching figures for `COc1ccc(OP(=O)(Oc2ccc(OC)cc2)C(NC(=O)[C@@H]2CCCN2C(=O)[C@@H](NC(=O)OC(C)(C)C)C(C)C)C(C)C)cc1` (mixture of isomers): 19500 M⁻¹ s⁻¹, below 50 M⁻¹ s⁻¹, below 50 M⁻¹ s⁻¹ and 42700 M⁻¹ s⁻¹.
For `CSCC[C@H](NC(=O)OCc1ccccc1)C(=O)N1CCC[C@H]1C(=O)NC(C(C)C)P(=O)(Oc1ccc(SC)cc1)Oc1ccc(SC)cc1` (mixture of isomers), in that order: 6300 M⁻¹ s⁻¹, below 50 M⁻¹ s⁻¹, 3700 M⁻¹ s⁻¹ and 223000 M⁻¹ s⁻¹.
For the molecule `CSc1ccc(OP(=O)(Oc2ccc(SC)cc2)C(CC(C)C)NC(=O)[C@@H]2CCCN2C(=O)[C@@H](NC(=O)OC(C)(C)C)C(C)C)cc1` (mixture of isomers), the Ratio turned out to be 11200 M⁻¹ s⁻¹ in test [1], 280 M⁻¹ s⁻¹ in test [2], 21900 M⁻¹ s⁻¹ in test [3] and 4100 M⁻¹ s⁻¹ in test [4].
`CSc1ccc(OP(=O)(Oc2ccc(SC)cc2)C(NC(=O)[C@@H]2CCCN2C(=O)CNC(=O)OC(C)(C)C)C(C)C)cc1` (mixture of isomers): the Ratio in test [1] was 5100 M⁻¹ s⁻¹; in test [2], below 50 M⁻¹ s⁻¹; in test [3], below 50 M⁻¹ s⁻¹; in test [4], 35000 M⁻¹ s⁻¹.
Take `CSc1ccc(OP(=O)(Oc2ccc(SC)cc2)C(NC(=O)[C@@H]2CCCN2C(=O)CNC(=O)OCc2ccccc2)C(C)C)cc1` (mixture of isomers): the Ratio in test [1] was 1200 M⁻¹ s⁻¹; in test [2], below 50 M⁻¹ s⁻¹; in test [3], 200 M⁻¹ s⁻¹; in test [4], 39000 M⁻¹ s⁻¹.
For `CSc1ccc(OP(=O)(Oc2ccc(SC)cc2)C(NC(=O)[C@@H]2CCCN2C(=O)[C@@H](C)NC(=O)OC(C)(C)C)C(C)C)cc1` (mixture of isomers), in that order: 900 M⁻¹ s⁻¹, below 50 M⁻¹ s⁻¹, below 50 M⁻¹ s⁻¹ and 39400 M⁻¹ s⁻¹.
The matching figures for `CSc1ccc(OP(=O)(Oc2ccc(SC)cc2)C(NC(=O)[C@@H]2CCCN2C(=O)[C@@H](NC(=O)OCc2ccccc2)C(C)C)C(C)C)cc1` (mixture of isomers): 6200 M⁻¹ s⁻¹, below 50 M⁻¹ s⁻¹, 4400 M⁻¹ s⁻¹ and 231000 M⁻¹ s⁻¹.
For `CSc1ccc(OP(=O)(Oc2ccc(SC)cc2)C(NC(=O)[C@@H]2CCCN2C(=O)[C@H](C)NC(=O)OCc2ccccc2)C(C)C)cc1` (mixture of isomers), in that order: 12000 M⁻¹ s⁻¹, below 50 M⁻¹ s⁻¹, 1500 M⁻¹ s⁻¹ and 144000 M⁻¹ s⁻¹.
In the case of `CSc1ccc(OP(=O)(Oc2ccc(SC)cc2)C(NC(=O)[C@@H]2CCCN2C(=O)[C@H](CC(C)C)NC(=O)OC(C)(C)C)C(C)C)cc1` (mixture of isomers), the Ratio in test [1] was 7000 M⁻¹ s⁻¹; in test [2] it was below 50 M⁻¹ s⁻¹; in test [3] it was 150 M⁻¹ s⁻¹; in test [4], 128000 M⁻¹ s⁻¹.
The matching figures for `CSc1ccc(OP(=O)(Oc2ccc(SC)cc2)C(NC(=O)[C@@H]2CCCN2C(=O)[C@H](COC(C)(C)C)NC(=O)OCc2ccccc2)C(C)C)cc1` (mixture of isomers): 4300 M⁻¹ s⁻¹, below 50 M⁻¹ s⁻¹, 500 M⁻¹ s⁻¹ and 162000 M⁻¹ s⁻¹.

Broadly, the inhibition is how much of the control response was suppressed.
